Legend:
Type in all cases: functional
[1] = Cytotoxicity against human MIA cells after 72 hrs by MTT assay
HT-29 [2] = assay: Cytotoxicity against human HT-29 cells after 72 hrs by MTT assay; settings: HT-29, 72 h
SW480 [3] = assay: Cytotoxicity against human SW480 cells after 72 hrs by MTT assay; settings: SW480, 72 h
MCF7 [4] = assay: Cytotoxicity against human MCF7 cells after 72 hrs by MTT assay; settings: MCF7, 72 h
A2780 [5] = assay: Cytotoxicity against human A2780 cells after 72 hrs by MTT assay; settings: A2780, 72 h
[6] = Cytotoxicity against human H460 cells after 72 hrs by MTT assay; settings: NCI-H460, 72 h
A-431 [7] = assay: Cytotoxicity against human A431 cells after 72 hrs by MTT assay; settings: A-431, 72 h
DU-145 [8] = assay: Cytotoxicity against human DU145 cells after 72 hrs by MTT assay; settings: DU-145, 72 h
[9] = Cytotoxicity against human BE(2)-C cells after 72 hrs by MTT assay
[10] = Cytotoxicity against human SJ-G2 cells after 72 hrs by MTT assay; settings: SJ-G2, 72 h
HT-29 [11] = assay: Cytotoxicity against human HT-29 cells at 100 uM after 72 hrs by MTT assay; settings: HT-29, 72 h, read-out: GI
SW480 [12] = assay: Cytotoxicity against human SW480 cells at 100 uM after 72 hrs by MTT assay; settings: SW480, 72 h, read-out: GI
MCF7 [13] = assay: Cytotoxicity against human MCF7 cells at 100 uM after 72 hrs by MTT assay; settings: MCF7, 72 h, read-out: GI
A2780 [14] = assay: Cytotoxicity against human A2780 cells at 100 uM after 72 hrs by MTT assay; settings: A2780, 72 h, read-out: GI
[15] = Cytotoxicity against human H460 cells at 100 uM after 72 hrs by MTT assay; settings: NCI-H460, 72 h, read-out: GI
A-431 [16] = assay: Cytotoxicity against human A431 cells at 100 uM after 72 hrs by MTT assay; settings: A-431, 72 h, read-out: GI
DU-145 [17] = assay: Cytotoxicity against human DU145 cells at 100 uM after 72 hrs by MTT assay; settings: DU-145, 72 h, read-out: GI
[18] = Cytotoxicity against human BE(2)-C cells at 100 uM after 72 hrs by MTT assay; settings: read-out: GI
[19] = Cytotoxicity against human SJ-G2 cells at 100 uM after 72 hrs by MTT assay; settings: SJ-G2, 72 h, read-out: GI
[20] = Cytotoxicity against human MIA cells at 100 uM after 72 hrs by MTT assay; settings: read-out: GI

Structure (SMILES) | GI50 [1] | GI50 (HT-29 [2]) | GI50 (SW480 [3]) | GI50 (MCF7 [4]) | GI50 (A2780 [5]) | GI50 [6] | GI50 (A-431 [7]) | GI50 (DU-145 [8]) | GI50 [9] | GI50 [10] | inhibition of growth at 100 µM (HT-29 [11]) | inhibition of growth at 100 µM (SW480 [12]) | inhibition of growth at 100 µM (MCF7 [13]) | inhibition of growth at 100 µM (A2780 [14]) | inhibition of growth at 100 µM [15] | inhibition of growth at 100 µM (A-431 [16]) | inhibition of growth at 100 µM (DU-145 [17]) | inhibition of growth at 100 µM [18] | inhibition of growth at 100 µM [19] | inhibition of growth at 100 µM [20]
N#C/C(=C\c1ccc(F)cc1)c1ccc(Cl)c(Cl)c1 | 11 µM |  |  |  |  |  |  |  |  |  |  |  |  |  |  |  |  |  |  | 
COc1ccc(/C=C(\C#N)c2ccc(Cl)c(Cl)c2)cc1 | 0.7 µM |  |  |  |  |  |  |  |  |  |  |  |  |  |  |  |  |  |  | 
N#C/C(=C\c1ccc[nH]1)c1ccccc1 | 81 µM | 41 µM | 26 µM | 17 µM | 25 µM | 81 µM | 57 µM | > 100 µM | 61 µM | 46 µM |  |  |  |  |  |  |  |  |  | 
N#C/C(=C\c1ccc[nH]1)c1ccc([N+](=O)[O-])cc1 | 34 µM | 25 µM | 24 µM | 18 µM | 18 µM | 32 µM | 27 µM | 26 µM | 22 µM | 24 µM |  |  |  |  |  |  |  |  |  | 
N#C/C(=C\c1ccc[nH]1)c1ccc(F)cc1 | 63 µM | 31 µM | 24 µM | 15 µM | 25 µM | 52 µM | 37 µM | 59 µM | 43 µM | 30 µM |  |  |  |  |  |  |  |  |  | 
N#C/C(=C\c1ccc[nH]1)c1ccc(Cl)cc1 | 38 µM | 18 µM | 22 µM | 4 µM | 18 µM | 19 µM | 23 µM | 37 µM | 21 µM | 20 µM |  |  |  |  |  |  |  |  |  | 
N#C/C(=C\c1ccc(O)cc1)c1ccc(Cl)c(Cl)c1 | 28 µM | 30 µM | 36 µM | 23 µM | 20 µM | 26 µM | 21 µM | 45 µM | 22 µM | 21 µM |  |  |  |  |  |  |  |  |  | 
CC(=O)Oc1ccc(/C=C(\C#N)c2ccc(Cl)c(Cl)c2)cc1 | 38 µM | 18 µM | 27 µM | 25 µM | 18 µM | 33 µM | 25 µM | 47 µM | 22 µM | 21 µM |  |  |  |  |  |  |  |  |  | 
N#C/C(=C\c1ccncc1)c1ccc(Cl)c(Cl)c1 | 22 µM | 18 µM | 18 µM | 15 µM | 18 µM | 9.4 µM | 26 µM | 24 µM | 16 µM | 22 µM |  |  |  |  |  |  |  |  |  | 
N#C/C(=C\c1cc(O)cc(O)c1)c1ccc(Cl)c(Cl)c1 | > 100 µM | > 100 µM | 90 µM | 28 µM | 93 µM | > 100 µM | 88 µM | > 100 µM | > 100 µM | 95 µM |  |  |  |  |  |  |  |  |  | 
N#CC(Cc1ccc[nH]1)c1ccccc1 (configuration not stated) |  |  |  |  |  |  |  |  |  |  | 39% | 40% | 47% | 76% | 15% | 20% | 7% | 43% | 27% | 30%
N#CC(Cc1ccc[nH]1)c1ccc(F)cc1 (configuration not stated) | 90 µM | 73 µM | 78 µM | 65 µM | 69 µM | 88 µM | 89 µM | 91 µM | 75 µM | 86 µM |  |  |  |  |  |  |  |  |  | 
N#CC(Cc1ccc[nH]1)c1ccc(Cl)cc1 (configuration not stated) | 58 µM | 37 µM | 53 µM | 26 µM | 26 µM | 58 µM | 58 µM | 60 µM | 45 µM | 52 µM |  |  |  |  |  |  |  |  |  | 
N#CC(Cc1ccc[nH]1)c1ccc([N+](=O)[O-])cc1 (configuration not stated) | 82 µM | 67 µM | 70 µM | 37 µM | 29 µM | 64 µM | 78 µM | 90 µM | 65 µM | 87 µM |  |  |  |  |  |  |  |  |  | 
N#CC(Cc1ccc[nH]1)c1ccc(Cl)c(Cl)c1 (configuration not stated) |  |  |  |  |  |  |  |  |  |  | 51% | 34% | 84% | 63% | 55% | 44% | 24% | 42% | 33% | 20%
CCCC/C=C(\C#N)c1ccc(Cl)c(Cl)c1 | 95 µM | 53 µM | 68 µM | 49 µM | 24 µM | 100 µM | 88 µM | 87 µM | 73 µM | 70 µM |  |  |  |  |  |  |  |  |  | 
CCCCCCCCC/C=C(\C#N)c1ccc(Cl)c(Cl)c1 |  |  |  |  |  |  |  |  |  |  | 53% | 68% | 49% | 24% | 100% | 88% | 87% | 73% | 70% | 22%
N#C/C(=C/c1ccc2ccccc2c1)C(=O)c1ccc[nH]1 | < 10 µM | < 10 µM | < 10 µM | 12 µM | < 10 µM | < 10 µM | < 10 µM | < 10 µM | < 10 µM | < 10 µM |  |  |  |  |  |  |  |  |  | 
Cc1ccc(/C=C(/C#N)C(=O)c2ccc[nH]2)cc1 | 27 µM | 14 µM | 14 µM | 39 µM | 19 µM | 11 µM | < 10 µM | < 10 µM | 11 µM | 20 µM |  |  |  |  |  |  |  |  |  | 
N#C/C(=C/c1ccc(Cl)cc1)C(=O)c1ccc[nH]1 | 59 µM | 54 µM | 68 µM | 84 µM | 75 µM | 38 µM | 31 µM | 32 µM | 63 µM | 53 µM |  |  |  |  |  |  |  |  |  | 
N#C/C(=C/c1ccc([N+](=O)[O-])cc1)C(=O)c1ccc[nH]1 | < 10 µM | < 10 µM | < 10 µM | 19 µM | 19 µM | < 10 µM | < 10 µM | < 10 µM | 19 µM | < 10 µM |  |  |  |  |  |  |  |  |  | 
N#C/C(=C/c1ccc(Cl)c(Cl)c1)C(=O)c1ccc[nH]1 | < 10 µM | < 10 µM | < 10 µM | 14 µM | < 10 µM | < 10 µM | < 10 µM | < 10 µM | 14 µM | 10 µM |  |  |  |  |  |  |  |  |  | 
N#C/C(=C/c1ccc(O)cc1)C(=O)c1ccc[nH]1 | 11 µM | < 10 µM | < 10 µM | 15 µM | < 10 µM | < 10 µM | < 10 µM | < 10 µM | < 10 µM | < 10 µM |  |  |  |  |  |  |  |  |  | 
COc1ccc(/C=C(/C#N)C(=O)c2ccc[nH]2)cc1 | < 10 µM | < 10 µM | < 10 µM | 22 µM | < 10 µM | 24 µM | 13 µM | < 10 µM | < 10 µM | < 10 µM |  |  |  |  |  |  |  |  |  | 
N#C/C(=C\c1ccccc1)c1ccc(Cl)c(Cl)c1 |  |  |  |  |  |  |  |  |  |  | 56% | 67% | 79% | 62% | 36% | 71% | 36% | 47% | 72% | 61%
Cc1ccc(/C=C(\C#N)c2ccc(Cl)c(Cl)c2)cc1 | 2 µM | 1.6 µM | 2.3 µM | 2.2 µM | 2 µM | 2.1 µM | 1.8 µM | 2.2 µM | 2.2 µM | 2.1 µM |  |  |  |  |  |  |  |  |  | 
N#C/C(=C\c1ccc2ccccc2c1)c1ccc(Cl)c(Cl)c1 | 2.1 µM | 1.6 µM | 2.3 µM | 1.5 µM | 1.8 µM | 1.7 µM | 1.8 µM | 2.7 µM | 1.9 µM | 2.3 µM |  |  |  |  |  |  |  |  |  | 
N#C/C(=C\c1ccc(Cl)cc1)c1ccc(Cl)c(Cl)c1 | 4 µM | 2.5 µM | 5 µM | 4.3 µM | 4 µM | 4.8 µM | 4.3 µM | 12 µM | 4.1 µM | 6.1 µM |  |  |  |  |  |  |  |  |  | 
N#C/C(=C\c1ccc(Br)cc1)c1ccc(Cl)c(Cl)c1 | 21 µM | 20 µM | 22 µM | 16 µM | 20 µM | 21 µM | 20 µM | 26 µM | 21 µM | 22 µM |  |  |  |  |  |  |  |  |  | 

Reference: ChEMBL document CHEMBL3217516, “Library synthesis and cytotoxicity of a family of 2-phenylacrylonitriles and discovery of an estrogen dependent breast cancer lead compound” (Medchemcomm, 2011)
